For experiment [1], the system named is Streptococcus sp. 'group A'. The experiment in a line: Streptococcus pyogenes SK(-)GAS viability under kanamycin – luminescence, BacTiterGlo, confirmation, counter-screen for streptokinase expression inhibitor project, dose response (AID 1900). The format is functional, organism-based.
Experiment [2] in a line: A Cell Based Secondary Assay To Explore Cytotoxicity of Compounds that Sensitize Mycobacterium Tuberculosis to Beta-Lactam Antibiotics. It is filed as functional.
The test system of experiment [3] is Streptococcus. The experiment in a line: GAS UMAA2166 growth inhibition – luminescence, BacTiterGlo, counter-screen for streptokinase expression inhibitor project, dose response (AID 1915).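 Also: potency for reduction of bacterial viability or growth.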 The format is functional, organism-based.
In experiment [4] the target is DNA dC->dU-editing enzyme APOBEC-3A (Homo sapiens, UniProt P31941). The experiment in a line: A3A deaminase inhibition for selectivity – biochemical, dose response (AID 504722). The format is functional.
Sequence of DNA dC->dU-editing enzyme APOBEC-3A (P31941 whole entry): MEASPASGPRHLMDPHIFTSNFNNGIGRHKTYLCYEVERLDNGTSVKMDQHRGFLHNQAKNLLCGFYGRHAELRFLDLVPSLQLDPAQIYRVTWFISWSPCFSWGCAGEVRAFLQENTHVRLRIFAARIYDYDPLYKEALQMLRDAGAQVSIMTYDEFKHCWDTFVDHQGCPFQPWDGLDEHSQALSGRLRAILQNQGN
The target in experiment [5] is DNA dC->dU-editing enzyme APOBEC-3G (Homo sapiens, UniProt Q9HC16). The experiment in a line: Dose Response confirmation of small molecule APOBEC3G DNA Deaminase Inhibitors via a fluorescence-based single-stranded DNA deaminase assay. [Related pubchem assays (depositor defined):AID493012, AID493028]. It is filed as functional.
Sequence of DNA dC->dU-editing enzyme APOBEC-3G (Q9HC16 whole entry): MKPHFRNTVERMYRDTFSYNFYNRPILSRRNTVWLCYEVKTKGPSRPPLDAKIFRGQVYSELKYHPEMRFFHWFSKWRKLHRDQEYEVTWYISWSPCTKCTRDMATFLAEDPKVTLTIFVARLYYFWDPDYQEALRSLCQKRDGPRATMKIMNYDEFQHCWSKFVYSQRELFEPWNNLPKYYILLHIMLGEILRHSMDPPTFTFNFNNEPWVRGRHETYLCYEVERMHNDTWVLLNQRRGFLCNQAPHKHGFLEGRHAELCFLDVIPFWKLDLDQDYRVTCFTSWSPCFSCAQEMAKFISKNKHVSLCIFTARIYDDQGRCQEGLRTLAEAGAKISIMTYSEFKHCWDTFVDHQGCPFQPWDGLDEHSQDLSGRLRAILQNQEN
The target of experiment [6] is T1, Estrogen receptor (Homo sapiens, UniProt P03372).
T1 sequence (P03372 whole entry): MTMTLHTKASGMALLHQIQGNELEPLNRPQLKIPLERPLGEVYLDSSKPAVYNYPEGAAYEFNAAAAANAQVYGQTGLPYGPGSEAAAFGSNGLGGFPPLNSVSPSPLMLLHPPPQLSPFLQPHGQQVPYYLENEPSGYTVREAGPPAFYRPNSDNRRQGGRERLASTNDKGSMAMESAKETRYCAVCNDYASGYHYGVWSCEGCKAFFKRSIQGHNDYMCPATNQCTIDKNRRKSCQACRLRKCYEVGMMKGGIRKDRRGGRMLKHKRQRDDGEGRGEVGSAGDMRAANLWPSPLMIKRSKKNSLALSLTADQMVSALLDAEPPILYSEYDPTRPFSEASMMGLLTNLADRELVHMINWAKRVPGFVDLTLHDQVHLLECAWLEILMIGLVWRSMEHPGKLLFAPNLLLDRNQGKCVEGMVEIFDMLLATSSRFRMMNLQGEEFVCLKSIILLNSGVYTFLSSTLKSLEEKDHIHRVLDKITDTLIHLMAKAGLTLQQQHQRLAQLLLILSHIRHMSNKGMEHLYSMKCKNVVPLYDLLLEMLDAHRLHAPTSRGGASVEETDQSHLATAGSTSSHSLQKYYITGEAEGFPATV

In experiment [7] the target is T2, Estrogen receptor beta (Homo sapiens, UniProt Q92731).
T2 sequence (Q92731 whole entry): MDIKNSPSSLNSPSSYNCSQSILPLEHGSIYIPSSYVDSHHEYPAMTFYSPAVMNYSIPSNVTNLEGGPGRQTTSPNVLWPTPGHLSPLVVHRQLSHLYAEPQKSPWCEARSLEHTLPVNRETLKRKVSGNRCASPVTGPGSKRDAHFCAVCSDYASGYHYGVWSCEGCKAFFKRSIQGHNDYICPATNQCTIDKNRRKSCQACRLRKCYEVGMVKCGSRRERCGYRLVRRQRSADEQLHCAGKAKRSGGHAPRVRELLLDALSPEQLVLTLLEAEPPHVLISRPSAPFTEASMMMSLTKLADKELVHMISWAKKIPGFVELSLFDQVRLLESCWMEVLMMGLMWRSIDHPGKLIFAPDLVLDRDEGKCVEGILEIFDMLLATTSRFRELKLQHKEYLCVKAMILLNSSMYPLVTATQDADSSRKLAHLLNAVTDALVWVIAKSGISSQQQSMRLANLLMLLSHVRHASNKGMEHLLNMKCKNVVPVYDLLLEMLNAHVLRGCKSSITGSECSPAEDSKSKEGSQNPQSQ
For experiment [8], the target named is T2, Estrogen receptor beta. The experiment in a line: blockers of SRC-3 recruitment to ERβ – biochemical, ELISA, streptavidin-HRP readout, orthogonal assay, confirmation (AID 1060). Background: In an ELISA, binding on a coated surface is turned into a signal by an enzyme label.
Experiment [9] deals with T3, Carboxy-terminal domain RNA polymerase II polypeptide A small phosphatase 1 (Homo sapiens, UniProt Q9GZU7).
T3 sequence (Q9GZU7 whole entry): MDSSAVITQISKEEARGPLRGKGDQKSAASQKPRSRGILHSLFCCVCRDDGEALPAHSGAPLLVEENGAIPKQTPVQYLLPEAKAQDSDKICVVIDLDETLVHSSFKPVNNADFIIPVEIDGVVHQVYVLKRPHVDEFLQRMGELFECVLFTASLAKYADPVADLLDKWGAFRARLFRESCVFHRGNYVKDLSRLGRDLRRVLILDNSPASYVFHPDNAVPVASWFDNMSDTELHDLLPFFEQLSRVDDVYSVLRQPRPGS
The experiment in a line: CTDSP1 inhibitors, concentration-response, biochemical, absorbance readout, ultra-high-throughput screen actives (AID 540297). The format is functional.

Experiment [10] addresses T4, Short transient receptor potential channel 4 (Mus musculus, UniProt Q9QUQ5).
T4 sequence (Q9QUQ5 whole entry): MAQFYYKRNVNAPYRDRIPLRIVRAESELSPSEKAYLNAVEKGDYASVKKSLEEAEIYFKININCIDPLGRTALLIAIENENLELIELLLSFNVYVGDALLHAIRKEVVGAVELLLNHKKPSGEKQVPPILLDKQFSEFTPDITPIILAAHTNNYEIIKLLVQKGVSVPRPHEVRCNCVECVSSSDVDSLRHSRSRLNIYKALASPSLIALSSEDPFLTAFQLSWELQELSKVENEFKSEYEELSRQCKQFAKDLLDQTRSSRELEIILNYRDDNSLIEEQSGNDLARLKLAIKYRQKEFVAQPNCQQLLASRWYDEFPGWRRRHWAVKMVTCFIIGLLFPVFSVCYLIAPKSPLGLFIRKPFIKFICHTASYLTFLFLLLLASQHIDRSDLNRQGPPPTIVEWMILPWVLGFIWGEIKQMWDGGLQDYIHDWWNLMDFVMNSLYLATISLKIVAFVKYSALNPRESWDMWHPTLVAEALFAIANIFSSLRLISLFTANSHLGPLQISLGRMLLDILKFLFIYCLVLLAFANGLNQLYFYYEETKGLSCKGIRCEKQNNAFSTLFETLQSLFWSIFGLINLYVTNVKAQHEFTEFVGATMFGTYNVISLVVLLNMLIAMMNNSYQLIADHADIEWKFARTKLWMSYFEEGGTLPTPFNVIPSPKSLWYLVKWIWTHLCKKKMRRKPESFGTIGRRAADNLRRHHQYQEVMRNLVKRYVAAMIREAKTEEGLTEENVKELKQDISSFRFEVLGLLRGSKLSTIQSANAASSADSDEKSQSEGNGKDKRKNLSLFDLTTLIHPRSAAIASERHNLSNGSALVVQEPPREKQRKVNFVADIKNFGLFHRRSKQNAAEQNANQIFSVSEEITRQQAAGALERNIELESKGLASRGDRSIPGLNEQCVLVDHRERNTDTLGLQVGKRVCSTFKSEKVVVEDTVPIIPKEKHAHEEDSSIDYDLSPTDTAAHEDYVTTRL
The experiment in a line: block of DAMGO-driven TRPC4 calcium entry – cell-based, HEK293 TRPC4/mu-opioid, Fluo-4 calcium, dose response (AID 434942).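 Also: potency of inhibitors blocking the TRPC4 calcium response.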 The format is functional.

The nature of experiment [11]: Trypanosoma cruzi growth suppression in host cells – NIH3T3 host cells, beta-gal luminescence, confirmation (AID 2044).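 Also: intracellular parasites grown in NIH/3T3 mouse fibroblasts as host cells; luminescent beta-galactosidase reporter signal from transgenic T. cruzi replicating inside host cells; inhibitors lower the luminescence signal.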 The format is functional, cell-based.
A short description of experiment [12]: NIH3T3 cell viability loss – ATP luminescence, mouse fibroblasts, counter-screen, dose response (AID 2010).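 Also: cells exposed to compound for about 90 hours before reading.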 The format is functional, cell-based.
Experiment [13] concerns the target T5, Microphthalmia-associated transcription factor (Homo sapiens, UniProt O75030).
T5 sequence (O75030 whole entry): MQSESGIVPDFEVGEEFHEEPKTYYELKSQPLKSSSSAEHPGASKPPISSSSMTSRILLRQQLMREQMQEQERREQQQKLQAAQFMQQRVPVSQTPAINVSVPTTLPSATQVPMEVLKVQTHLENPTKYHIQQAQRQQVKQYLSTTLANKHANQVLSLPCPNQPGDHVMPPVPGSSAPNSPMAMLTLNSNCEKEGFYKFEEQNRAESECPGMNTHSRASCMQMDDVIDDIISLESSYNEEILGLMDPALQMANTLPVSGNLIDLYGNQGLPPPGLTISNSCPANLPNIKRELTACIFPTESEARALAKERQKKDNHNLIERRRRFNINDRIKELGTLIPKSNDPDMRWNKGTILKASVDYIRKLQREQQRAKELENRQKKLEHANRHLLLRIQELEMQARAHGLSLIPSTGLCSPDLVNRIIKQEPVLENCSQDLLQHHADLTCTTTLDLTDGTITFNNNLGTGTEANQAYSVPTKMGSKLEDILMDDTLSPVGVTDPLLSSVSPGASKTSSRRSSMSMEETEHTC
The experiment in a line: reducers of TRPM1 reporter luminescence, concentration series – cell-based, SK-MEL-5, cherry-picked, set 3, MITF inhibitor project, dose response (AID 493073).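 Also: SK-MEL-5 melanoma cells with luciferase driven by the MITF target TRPM1 promoter.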 It is filed as functional.

Experiment [14] is described as follows: cells.
The target in experiment [15] is T6, Cytochrome P450 1A2 (Homo sapiens, UniProt P05177).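 Also: PubChem cytochrome P450 panel assay, CYP1A2 panel member.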
T6 sequence (P05177 whole entry): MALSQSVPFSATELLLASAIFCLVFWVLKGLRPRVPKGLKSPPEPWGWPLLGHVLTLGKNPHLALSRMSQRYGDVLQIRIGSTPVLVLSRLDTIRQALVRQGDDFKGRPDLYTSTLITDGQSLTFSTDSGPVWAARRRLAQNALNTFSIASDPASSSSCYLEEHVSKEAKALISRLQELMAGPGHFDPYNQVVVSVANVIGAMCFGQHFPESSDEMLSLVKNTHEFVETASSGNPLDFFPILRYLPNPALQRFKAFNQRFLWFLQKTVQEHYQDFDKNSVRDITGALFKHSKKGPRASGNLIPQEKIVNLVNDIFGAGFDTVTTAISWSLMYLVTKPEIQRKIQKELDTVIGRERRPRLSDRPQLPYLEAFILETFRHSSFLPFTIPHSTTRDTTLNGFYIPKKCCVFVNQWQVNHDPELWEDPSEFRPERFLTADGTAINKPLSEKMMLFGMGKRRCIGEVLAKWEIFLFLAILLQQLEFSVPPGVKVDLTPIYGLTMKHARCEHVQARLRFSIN

Experiment [16] is described as follows: A cytotoxicity screen of small molecule inhibitors of the PhoP region in Salmonella typhi identified in the primary screen. [Related pubchem assays: 1850, 1864, 1985 ]. It is filed as functional.
The target in experiment [17] is Peroxisome proliferator-activated receptor gamma/Nuclear receptor coactivator 1 (Homo sapiens, UniProt P37231). The experiment in a line: TR-FRET dose response biochemical High Throughput Screening assay for agonists of the steroid receptor coactivator 1 (SRC-1) recruitment by the peroxisome proliferator-activated receptor gamma (PPAR gamma): non-selective agonists. [Related pubchem assays (depositor defined):AID1300, AID1808, AID504735, AID631]. The format is protein assay. A general note: TR-FRET usually uses a lanthanide donor and a delayed reading to cut background.

Experiment [18] concerns the target Peroxisome proliferator-activated receptor gamma/Nuclear receptor coactivator 3 (Homo sapiens, UniProt P37231). The experiment in a line: TR-FRET dose response biochemical High Throughput Screening assay for agonists of the steroid receptor coactivator 3 (SRC-3) recruitment by the peroxisome proliferator-activated receptor gamma (PPAR gamma): non-selective agonists. [Related pubchem assays: 1301 (Confirmation screen.), 1048 (Primary screen.)]. The format is functional.

For experiment [19], the target named is Peroxisome proliferator-activated receptor gamma/Nuclear receptor coactivator 2 (Homo sapiens, UniProt P37231). The experiment in a line: TR-FRET dose response biochemical High Throughput Screening assay for agonists of the steroid receptor coactivator 2 (SRC-2) recruitment by the peroxisome proliferator-activated receptor gamma (PPAR gamma): non-selective agonists. [Related pubchem assays: 1297, 1032 ]. The format is functional.
Sequence of Peroxisome proliferator-activated receptor gamma/Nuclear receptor coactivator 2 (P37231 whole entry): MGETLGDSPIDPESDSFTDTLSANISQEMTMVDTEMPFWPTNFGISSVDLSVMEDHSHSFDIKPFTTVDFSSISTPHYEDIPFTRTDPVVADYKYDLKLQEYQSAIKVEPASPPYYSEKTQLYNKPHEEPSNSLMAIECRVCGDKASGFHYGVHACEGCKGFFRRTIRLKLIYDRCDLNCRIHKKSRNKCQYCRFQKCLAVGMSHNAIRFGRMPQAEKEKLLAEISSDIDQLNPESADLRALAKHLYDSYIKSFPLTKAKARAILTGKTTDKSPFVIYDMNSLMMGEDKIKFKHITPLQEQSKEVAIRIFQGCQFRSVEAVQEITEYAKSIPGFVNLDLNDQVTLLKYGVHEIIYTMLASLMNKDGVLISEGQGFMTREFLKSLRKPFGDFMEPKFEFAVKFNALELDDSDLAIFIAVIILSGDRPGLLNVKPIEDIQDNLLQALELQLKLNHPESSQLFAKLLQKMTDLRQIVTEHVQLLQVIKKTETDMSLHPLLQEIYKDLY
Sequence of Peroxisome proliferator-activated receptor gamma/Nuclear receptor coactivator 2 (Q15596 whole entry, further chain): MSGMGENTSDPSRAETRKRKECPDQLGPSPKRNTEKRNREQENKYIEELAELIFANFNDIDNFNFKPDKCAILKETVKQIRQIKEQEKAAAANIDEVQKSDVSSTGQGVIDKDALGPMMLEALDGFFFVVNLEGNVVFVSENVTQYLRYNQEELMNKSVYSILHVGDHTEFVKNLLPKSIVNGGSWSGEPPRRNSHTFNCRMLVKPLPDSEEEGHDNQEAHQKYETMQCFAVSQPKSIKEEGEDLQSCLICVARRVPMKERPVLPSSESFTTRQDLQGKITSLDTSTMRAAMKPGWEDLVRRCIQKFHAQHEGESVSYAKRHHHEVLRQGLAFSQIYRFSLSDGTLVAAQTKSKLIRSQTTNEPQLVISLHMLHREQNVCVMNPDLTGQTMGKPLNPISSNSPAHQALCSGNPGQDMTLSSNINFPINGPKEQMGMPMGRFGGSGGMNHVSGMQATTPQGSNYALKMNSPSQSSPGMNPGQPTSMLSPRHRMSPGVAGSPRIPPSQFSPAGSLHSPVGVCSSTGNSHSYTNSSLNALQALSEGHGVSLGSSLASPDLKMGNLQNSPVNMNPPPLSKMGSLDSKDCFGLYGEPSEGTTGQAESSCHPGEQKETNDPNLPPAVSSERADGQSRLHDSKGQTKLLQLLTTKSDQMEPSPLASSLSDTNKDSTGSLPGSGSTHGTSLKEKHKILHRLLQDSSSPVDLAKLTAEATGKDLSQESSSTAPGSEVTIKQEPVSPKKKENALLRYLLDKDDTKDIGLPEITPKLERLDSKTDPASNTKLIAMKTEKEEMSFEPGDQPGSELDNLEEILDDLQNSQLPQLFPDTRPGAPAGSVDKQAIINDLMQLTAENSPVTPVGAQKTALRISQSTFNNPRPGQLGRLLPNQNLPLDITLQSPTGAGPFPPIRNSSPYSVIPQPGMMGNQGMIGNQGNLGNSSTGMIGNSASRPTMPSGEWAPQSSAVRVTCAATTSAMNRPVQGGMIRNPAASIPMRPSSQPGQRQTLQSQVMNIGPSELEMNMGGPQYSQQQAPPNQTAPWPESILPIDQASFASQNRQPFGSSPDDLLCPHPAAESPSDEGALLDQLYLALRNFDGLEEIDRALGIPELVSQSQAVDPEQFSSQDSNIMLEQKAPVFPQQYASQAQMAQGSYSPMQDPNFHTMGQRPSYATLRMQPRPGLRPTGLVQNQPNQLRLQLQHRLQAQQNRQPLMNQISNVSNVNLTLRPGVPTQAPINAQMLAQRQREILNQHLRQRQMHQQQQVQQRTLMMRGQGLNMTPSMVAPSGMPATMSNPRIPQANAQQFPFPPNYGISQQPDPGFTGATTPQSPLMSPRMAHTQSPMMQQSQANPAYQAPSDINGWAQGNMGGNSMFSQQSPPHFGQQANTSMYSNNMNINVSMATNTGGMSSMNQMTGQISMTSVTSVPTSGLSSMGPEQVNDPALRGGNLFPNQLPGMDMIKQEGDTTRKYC

Experiment [20] is described as follows: HepG2 cell cytotoxicity, dose response, cytotoxicity control for non-replicating M. tuberculosis project (AID 489018). It is filed as functional. Particulars: Mycobacterium tuberculosis.
Experiment [21] is described as follows: cells. It is filed as functional.

Molecules are shown by their SMILES. Calls of active or inactive are those of the source. Where only a bound is given, the exact number is not on record here.

This note sets out measurements from ChEMBL document CHEMBL1201862, “PubChem BioAssay data set” (2004).

Sequence of Peroxisome proliferator-activated receptor gamma/Nuclear receptor coactivator 3 (P37231 whole entry): as the sequence (P37231 whole entry) above
Sequence of Peroxisome proliferator-activated receptor gamma/Nuclear receptor coactivator 3 (Q9Y6Q9 whole entry, further chain): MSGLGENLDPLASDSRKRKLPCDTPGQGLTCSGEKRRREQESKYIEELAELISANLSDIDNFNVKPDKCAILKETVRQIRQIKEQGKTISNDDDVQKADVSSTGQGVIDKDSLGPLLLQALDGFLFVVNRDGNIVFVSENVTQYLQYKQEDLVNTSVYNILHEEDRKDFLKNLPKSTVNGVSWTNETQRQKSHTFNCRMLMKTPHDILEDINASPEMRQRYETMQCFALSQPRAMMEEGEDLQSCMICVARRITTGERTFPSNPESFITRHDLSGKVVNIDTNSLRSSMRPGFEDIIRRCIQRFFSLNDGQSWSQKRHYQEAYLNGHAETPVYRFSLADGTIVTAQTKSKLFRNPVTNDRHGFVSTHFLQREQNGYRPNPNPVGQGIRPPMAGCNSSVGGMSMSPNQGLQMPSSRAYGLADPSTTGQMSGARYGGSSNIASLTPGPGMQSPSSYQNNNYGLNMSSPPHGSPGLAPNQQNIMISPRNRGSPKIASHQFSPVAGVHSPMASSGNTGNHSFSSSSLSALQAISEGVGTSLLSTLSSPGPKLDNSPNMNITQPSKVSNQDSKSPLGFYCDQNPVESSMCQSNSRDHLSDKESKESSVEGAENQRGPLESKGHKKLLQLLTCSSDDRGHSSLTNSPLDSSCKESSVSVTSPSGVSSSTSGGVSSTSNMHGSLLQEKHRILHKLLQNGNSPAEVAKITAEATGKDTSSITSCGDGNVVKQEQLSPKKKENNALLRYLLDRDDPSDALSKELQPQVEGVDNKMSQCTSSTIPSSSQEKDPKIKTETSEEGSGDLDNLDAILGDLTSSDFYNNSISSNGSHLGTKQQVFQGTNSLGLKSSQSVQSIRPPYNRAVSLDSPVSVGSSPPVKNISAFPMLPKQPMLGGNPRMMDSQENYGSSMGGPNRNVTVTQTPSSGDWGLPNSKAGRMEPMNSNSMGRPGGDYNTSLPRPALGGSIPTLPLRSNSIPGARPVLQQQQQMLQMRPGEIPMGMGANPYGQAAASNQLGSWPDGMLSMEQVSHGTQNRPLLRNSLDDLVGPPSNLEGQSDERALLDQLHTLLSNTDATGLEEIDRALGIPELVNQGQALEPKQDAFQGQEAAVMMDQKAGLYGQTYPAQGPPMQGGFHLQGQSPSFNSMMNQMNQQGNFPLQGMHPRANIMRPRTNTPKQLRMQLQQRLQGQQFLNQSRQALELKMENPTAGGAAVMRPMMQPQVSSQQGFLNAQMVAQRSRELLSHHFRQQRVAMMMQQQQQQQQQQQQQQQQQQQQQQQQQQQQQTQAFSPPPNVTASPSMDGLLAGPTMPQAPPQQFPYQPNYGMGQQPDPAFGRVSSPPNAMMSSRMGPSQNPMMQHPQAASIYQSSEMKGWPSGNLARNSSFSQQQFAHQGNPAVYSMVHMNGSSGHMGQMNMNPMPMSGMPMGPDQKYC

As a reminder, the EC50 is the concentration giving half of the maximal effect. What is called CC50 is the concentration giving 50% cytotoxicity. As to `CNC(=Nc1cc(Cl)ccc1Cl)SC1CC(=O)N(c2ccc(C(=O)OC)cc2)C1=O` (centres undefined), the EC50 was 10.3 µM (active) in experiment [1] and 12.5 µM (active) in experiment [3]. In [2], the CC50 is > 40 µM (active).
Usually IC50 stands for the concentration that gives 50% inhibition. `C=C(C)Cn1c(-c2cccc([N+](=O)[O-])c2)n[nH]c1=S`: the IC50 in experiment [4] was > 100 µM (inactive); in [5], 5.5 µM (active).
Take `O=C(c1cc2ncc(Br)cn2n1)N1CCN(C(=O)c2ccco2)CC1`: the IC50 in experiment [6] was 17.9 µM (active); in experiment [7], 2.73 µM (active); in experiment [8], 0.349 µM (not active); in experiment [9], 16.5 µM (active).
Take `Cc1nn(C)c(C)c1Sc1ccc(Br)cc1`: the EC50 in [10] was 4.73 µM (active).
For orientation: AC50 means the midpoint of the concentration-response curve, whichever way the signal moves. For the molecule `Clc1ccc(-c2c[n+](Cc3cccc(Cl)c3)c3n2CCC3)cc1`, the EC50 is < 0.1 µM (active) in [11], > 60 µM (not active) in [12] and 0.009 µM (active) in experiment [14]. Also, the AC50 in experiment [13] is 8.77 µM (active).
Turning to `N#Cc1ccc(C23CC4(C2)[C@H](CN(Cc2cccnc2)[C@@H]4c2ccccc2)C3c2ccccc2)cc1` (some centres undefined), in experiment [2], the CC50 was > 40 µM (active).
`O=C(Nc1cccc(Cl)c1)N1CCN2C(=O)c3ccccc3C12c1ccccc1` (centres undefined): the EC50 in [10] is 3.76 µM (active). The AC50 in experiment [15] was 3.16 µM (inconclusive).
As to `CC1(C)CC(=O)C2=C(C1)N(c1ccc(F)cc1)C(=O)CC2c1ccsc1` (centres undefined), the EC50 in [16] was > 50 µM (active).
As to `COc1ccc([N+](=O)[O-])cc1NCc1ccco1`, the EC50 in experiment [10] is 2.99 µM (active).
On to `Cc1ccccc1Oc1ccc(Oc2ccccc2C)nn1`, for which the EC50 in [16] was > 50 µM (active).
As to `c1ccn2cc(C34CC5CC(CC(C5)C3)C4)nc2c1`, the EC50 in experiment [10] is 6.68 µM (active).
In the case of `O=C(Nc1ccc(N2CCOCC2)c(Cl)c1)c1ccccc1F`, the EC50 in experiment [16] was > 50 µM (active).
Turning to `C=CCn1c(NC(C)c2cc(Cl)ccc2O)nc2ccccc21` (centres undefined), the EC50 in experiment [16] was > 50 µM (active); in [17], > 79.4 µM (inactive); in experiment [18], 13.3 µM (not active); in experiment [19] it was > 79.4 µM (not active).
For `C/C(=N\Nc1nc2ccccc2[nH]1)c1ccc(N2CCOCC2)cc1`, the CC50 in experiment [20] is > 20 µM (active). Besides, the IC50 in experiment [21] is 20.3 µM (active).
For `Cn1c(/C=N/c2nc3ccccc3[nH]2)nc2ccccc21`, the CC50 in experiment [2] was 37.4 µM (active).
